Columns and labels:
Settings in all cases: 72 h
Caco-2 [1] = experiment: cell viability relative to DMSO; higher = less toxic
Calu-3 [2] = experiment: as above
HepG2 [3] = experiment: as above
U2OS [4] = experiment: as above
Vero E6 [5] = experiment: as above
Caco-2 [6] = experiment: relative viability EC50 (midpoint between 100% and the lowest measured viability); higher = less toxic
Calu-3 [7] = experiment: as above
HepG2 [8] = experiment: as above
U2OS [9] = experiment: as above
Vero E6 [10] = experiment: as above
Caco-2 [11] = experiment: drug sensitivity score (DSS) for viability; higher = more toxic; extreme values may be limits of the assay
Calu-3 [12] = experiment: as above
HepG2 [13] = experiment: as above
U2OS [14] = experiment: as above
Vero E6 [15] = experiment: as above

Structure (SMILES)	cell viability (Caco-2 [1]; 1 nM)	cell viability (Caco-2 [1]; 10 nM)	cell viability (Caco-2 [1]; 100 nM)	cell viability (Caco-2 [1]; 1000 nM)	cell viability (Caco-2 [1]; 10000 nM)	cell viability (Calu-3 [2]; 1 nM)	cell viability (Calu-3 [2]; 10 nM)	cell viability (Calu-3 [2]; 100 nM)	cell viability (Calu-3 [2]; 1000 nM)	cell viability (Calu-3 [2]; 10000 nM)	cell viability (HepG2 [3]; 1 nM)	cell viability (HepG2 [3]; 10 nM)	cell viability (HepG2 [3]; 100 nM)	cell viability (HepG2 [3]; 1000 nM)	cell viability (HepG2 [3]; 10000 nM)	cell viability (U2OS [4]; 1 nM)	cell viability (U2OS [4]; 10 nM)	cell viability (U2OS [4]; 100 nM)	cell viability (U2OS [4]; 1000 nM)	cell viability (U2OS [4]; 10000 nM)	cell viability (Vero E6 [5]; 1 nM)	cell viability (Vero E6 [5]; 10 nM)	cell viability (Vero E6 [5]; 100 nM)	cell viability (Vero E6 [5]; 1000 nM)	cell viability (Vero E6 [5]; 10000 nM)	relative viability EC50 (Caco-2 [6])	relative viability EC50 (Calu-3 [7])	relative viability EC50 (HepG2 [8])	relative viability EC50 (U2OS [9])	relative viability EC50 (Vero E6 [10])	drug sensitivity score (Caco-2 [11])	drug sensitivity score (Calu-3 [12])	drug sensitivity score (HepG2 [13])	drug sensitivity score (U2OS [14])	drug sensitivity score (Vero E6 [15])
CCCCCC(O)CCCC(=O)O (stereo unspecified)	95.3%	79%	82.1%	93.7%	101%	98.6%	103%	101%	95.9%	99.4%	90.7%	95.5%	85.8%	98.5%	92.5%	98.1%	97.8%	100%	95.8%	102%	86.1%	102%	95.1%	95.3%	90.2%	> 10 µM	> 10 µM	> 10 µM	> 10 µM	> 10 µM	0.5	0	0	0	0
CCCC[C@]1(CC)CS(=O)(=O)c2cc(CNC(CC(=O)O)CC(=O)O)c(OC)cc2[C@@H](c2ccccc2)N1	90%	97.8%	99.7%	96.5%	105%	96.3%	101%	98%	89.5%	100%	105%	112%	108%	97.7%	112%	96.7%	101%	96.8%	104%	104%	95.7%	94.1%	96.5%	91.1%	104%	> 10 µM	> 10 µM	> 10 µM	> 10 µM	> 10 µM	0	0	0	0	0
CN1CCN(C(=O)c2nc3ccc(Cl)cc3[nH]2)CC1	106%	100%	96.5%	92.2%	90.9%	100%	99.9%	87.9%	96.9%	101%	104%	107%	96.7%	106%	93.8%	105%	97.1%	103%	98.1%	101%	97.9%	106%	97.8%	102%	104%	> 10 µM	> 10 µM	> 10 µM	> 10 µM	> 10 µM	0	0	0	0	0
COC(=O)Nc1ccc2[nH]cc(CCNC(C)=O)c2c1	96.3%	95.8%	94.6%	98.9%	105%	103%	96.6%	98.1%	97.8%	97.8%	102%	94.6%	98.3%	96.4%	91%	98.2%	104%	98%	97.2%	96.6%	99%	102%	103%	95.3%	99%	> 10 µM	> 10 µM	> 10 µM	> 10 µM	> 10 µM	0	0	0	0	0
COc1ccc(/C=C/CCCCOc2ccc(C(=O)c3cccc(C(=O)O)c3)cc2CCC(=O)O)cc1	96.6%	94%	102%	102%	95.3%	102%	84.6%	102%	100%	111%	102%	95.3%	109%	110%	106%	95.8%	96.2%	96.3%	100%	98.7%	93.9%	96.3%	100%	94.4%	99%	> 10 µM	> 10 µM	> 10 µM	> 10 µM	> 10 µM	0	0	0	0	0
CS(=O)(=O)c1ccc(Cn2c3c(c4cc(F)cc(F)c42)CCCC3CC(=O)O)cc1 (stereo unspecified)	97.6%	96.4%	96.5%	96%	97.7%	99.7%	98.4%	95.3%	103%	100%	108%	91%	97.3%	95.6%	94%	93.1%	97.2%	93.5%	97.1%	97.6%	98%	101%	100%	99.1%	95.4%	> 10 µM	> 10 µM	> 10 µM	> 10 µM	> 10 µM	0	0	0	0	0
Cc1cc(-c2nc(C(=O)Nc3cn(C4CCOCC4)nc3C(N)=O)co2)ccn1	97.5%	94.4%	101%	98.2%	93.3%	109%	97%	85.7%	95%	93.2%	99.9%	113%	88.6%	82.9%	96.3%	99%	94.7%	99.8%	100%	99.3%	93.5%	103%	101%	93%	92.1%	> 10 µM	> 10 µM	> 10 µM	> 10 µM	> 10 µM	0	0	2.9	0	0
Cc1ccc([N+](=O)[O-])cc1S(=O)(=O)N(C)C	91.7%	88.7%	94.2%	96.1%	99.2%	97.2%	92.8%	94.8%	107%	105%	95.7%	104%	93.1%	99.1%	102%	103%	99.7%	103%	92.6%	99.9%	92.8%	97.9%	95.6%	93.1%	108%	> 10 µM	> 10 µM	> 10 µM	> 10 µM	> 10 µM	0	0	0	0	0
Clc1cccc(-c2nnnn2Cc2cccnc2)c1Cl	97.6%	104%	99.1%	98.4%	91.1%	99.9%	105%	96.2%	98.2%	97.2%	101%	97.5%	105%	101%	103%	97%	95.9%	94.2%	99.3%	94.9%	106%	103%	104%	99.2%	102%	> 10 µM	> 10 µM	> 10 µM	> 10 µM	> 10 µM	0	0	0	0	0
O=C(CCc1ccncc1)NNC(=O)N1Cc2ccccc2Oc2ccc(Cl)cc21	88.1%	99.1%	92.7%	95.6%	98.4%	103%	96.4%	97.3%	87.8%	95.4%	117%	106%	111%	99.9%	107%	96.4%	103%	96.8%	102%	100%	100%	98.4%	101%	94.9%	109%	> 10 µM	> 10 µM	> 10 µM	> 10 µM	> 10 µM	0	0	0	0	0
O=C(Nc1ccc(Oc2ccc(Cl)cn2)c(Cl)c1)c1ccccn1	98.1%	97.8%	104%	104%	93.1%	103%	108%	95.1%	98.6%	97.7%	104%	108%	109%	93.7%	99.1%	102%	105%	99.6%	104%	96.2%	101%	101%	102%	96%	95.8%	> 10 µM	> 10 µM	> 10 µM	> 10 µM	> 10 µM	0	0	0	0	0
OC(c1ccccc1)C1CCN(CCc2ccccc2)CC1 (stereo unspecified)	98.4%	95.2%	102%	101%	95.4%	97.3%	85%	111%	108%	104%	88.4%	110%	96.7%	105%	114%	101%	96.7%	102%	98%	101%	96.3%	94.1%	93.5%	93.8%	106%	> 10 µM	> 10 µM	> 10 µM	> 10 µM	> 10 µM	0	0	0	0	0
COc1cc(SC)ccc1C(=O)N1CCC(Cc2ccccc2)CC1 [JX-401]	95.5%	95.9%	90.9%	99%	94.5%	99.4%	114%	97.5%	103%	97.3%	104%	110%	99.9%	97.7%	106%	–	–	–	–	–	101%	98.6%	99.8%	97.6%	94.8%	> 10 µM	> 10 µM	> 10 µM	–	> 10 µM	0	0	0	–	0
O=C1c2ccccc2C(=O)c2ccccc21 [anthraquinone]	–	–	–	–	–	94.9%	97.4%	95.8%	88%	98.2%	95.2%	106%	96.2%	94.2%	92.6%	105%	99.7%	103%	99.2%	105%	105%	106%	99.8%	104%	101%	–	> 10 µM	> 10 µM	> 10 µM	> 10 µM	–	0	0	0	0

From the supplement of paper PMC13380429
